The source of these data is US10426757B2, “Compositions and methods for promoting intestinal stem cell and/or non-stem progenitor cell function” (Whitehead Institute for Biomedical Research, priority 2014, dated 2019).

Experiment [1] concerns Lgr5-GFP^hi ISCs and Lgr5-GFP^low progenitors. Kind of experiment: Flow cytometry enumeration of Lgr5-GFP^hi ISCs and Lgr5-GFP^low progenitors in Lgr5-EGFP-IRES-CreERT2 mice. The conditions noted are these: GW501516 4 mg/kg daily IP, 2-4 weeks, vs vehicle. In kind it is in vivo, mouse.
Description: Mice were housed in the Unit for Laboratory Animal Medicine at the Whitehead Institute for Biomedical Research and Koch Institute for Integrative Cancer Research. Lgr5-EGFP-IRES-CreERT2 mice (strain name: B6.129P2-Lgr5^tm1(cre/ERT2)Cle/J, stock number 008875), and Rosa26-lacZ mice (strain name: B6.129S4-Gt(ROSA)26Sor^tm1Sor/J, stock number 003474) were obtained from the Jackson Laboratory. […] Control mice were age-matched and fed normal chow ad libitum. GW501516 (Enzo) was reconstituted in DMSO at 4.5 mg ml^−1 and diluted 1:10 in a solution of 5% PEG400 (Hampton Research), 5% Tween80 (Sigma), 90% H2O for a daily intraperitoneal injection of 4 mg/kg.
As previously reported and briefly summarized here, small intestines were removed, washed with cold PBS−/−, opened laterally and cut into 3-5 mm fragments. Pieces were washed multiple times with cold PBS−/− until clean, washed 2-3 with PBS−/−/EDTA (10 mM), and incubated on ice for 90-120 minutes while mixing at 30-minute intervals. Crypts were then mechanically separated from the connective tissue by shaking, and filtered through a 70-μm mesh into a 50-ml conical tube to remove villous material and tissue fragments. At this point the suspension was mainly composed of crypts. […] For ISC isolation, the crypt suspensions were dissociated to individual cells with TrypLE Express (Invitrogen). Cell labeling consisted of an antibody cocktail comprising CD45-PE (eBioscience, 30-F1 1), CD31-PE (Biolegend, Mecl3.3), Ter119-PE (Biolegend, Ter119), CD24-Pacific Blue (Biolegend, M1/69), CD117-APC/Cy7 (Biolegend, 2BS), and EPCAM-APC (eBioscience, G8.8). ISCs were isolated as Lgr5-EGFP^hiEpcam^+CD24^low/−CD31^−Ter119 CD45^−7-AAD^−. EGFP^low progenitors were isolated as EGFP^lowEpcam^+CD24^low/−CD31^−Ter119^−CD45^−7-AAD^−, and Paneth cells were isolated as CD24^hiSidescatter^hiLgr5-EGFP^−Epcam^+CD31^−Ter119^−CD45^−7-AAD^− with a BD FACS Aria II SORP cell sorter into supplemented crypt culture medium for culture. Dead cells were excluded from the analysis with the viability dye 7-AAD (Life Technologies).
The next experiment deals with small intestinal crypts. Kind of experiment: Crypt organoid-forming (clonogenicity) assay in 3-D culture. The conditions noted are these: crypts from GW501516-treated mice vs vehicle. The format is cell-based, mouse.
The test system of experiment [2] is crypt base columnar cells and transit-amplifying cells. Kind of experiment: BrdU incorporation into ISCs and TA-cells. The format is in vivo, mouse. The conditions noted are these: GW501516-treated mice, 4 hours after BrdU pulse. As to the method: Mice were housed in the Unit for Laboratory Animal Medicine at the Whitehead Institute for Biomedical Research and Koch Institute for Integrative Cancer Research. Lgr5-EGFP-IRES-CreERT2 mice (strain name: […] B6.129S4-Gt(ROSA)26Sor^tm1Sor/J, stock number 003474) were obtained from the Jackson Laboratory. […] Control mice were age-matched and fed normal chow ad libitum. GW501516 (Enzo) was reconstituted in DMSO at 4.5 mg ml^-1 and diluted 1:10 in a solution of 5% PEG400 (Hampton Research), 5% Tween80 (Sigma), 90% H2O for a daily intraperitoneal injection of 4 mg/kg. Apc exon 14 was excised by tamoxifen suspended in sunflower seed oil (Spectrum […]) at a concentration of 10 mg ml^-1, and 250 μl per 25 g of body weight was administered by intraperitoneal injection to mice twice over 4 days before harvesting tissue. BrdU was prepared at 10 mg ml^-1 in PBS, passed through 0.22 μm filter and injected at 100 mg kg^-1. As previously described^5, tissues were fixed in 10% formalin, paraffin embedded and sectioned. Antigen retrieval was performed with Borg Decloaker RTU solution (Biocare Medical) in a pressurized Decloaking Chamber (Biocare Medical) for 3 minutes. […]
On the technique in general: Uptake of a labelled nucleoside into DNA is a usual measure of proliferation.

Another experiment has as its system β-catenin target genes. Kind of experiment: Single cell qPCR of β-catenin target genes. In kind it is in vivo, mouse. The conditions noted are these: ISCs and progenitors from GW501516-treated mice. As to the method: For one-tube single-cell sequence-specific pre-amplification, individual primer sets of β-catenin target genes (total of 96) were pooled to 0.1 mM final concentration for each primer. Single cells were directly sorted into 96 well plates containing 5 ul RT-PCR master mix (2.5 ul CellsDirect reaction mix, Invitrogen; 0.5 ul primer pool; 0.1 ul RT/Taq enzyme, Invitrogen; 1.9 ul nuclease free water) in each well. Immediately after, plates were placed on PCR machine for pre-amplification. Sequence specific pre-amplification PCR protocol was as following: 1) 60 minutes at 50° C. for cell lyses and sequence specific reverse transcription, 2) 3 minutes at 95° C. for reverse transcriptase inactivation and Taq polymerase activation. Then, cDNA was amplified by 20 cycles of 15 seconds at 95° C. for initial denaturation, […] at 60° C. for annealing and elongation. After pre-amplification, samples were diluted 1:5 prior to high throughput microfluidic real time PCR analysis using Fluidgm platform. […] Threshold crossing (Ct) values were calculated using the BioMark Real-Time PCR Analysis software (Fluidgm). […] Fold-changes were calculated as the difference of median of log2 expression levels for the two cell populations. […]
On the technique in general: In qPCR the cycle at which signal appears reflects the starting amount.

The subject of a further experiment is aged crypts. The experiment in a line: Stem cell frequency and organoid formation in aged mice. The format is in vivo, mouse. As to the method:
Isolated ISCs or progenitor cells were centrifuged for 5 minutes at 250 g, re-suspended in the appropriate volume of crypt culture medium (500-1,000 cells μl^−1), then seeded onto 25-30 μl Matrigel™ (Corning 356231 growth factor reduced) containing 1 μM jagged (Ana-Spec) in a flat bottom 48-well plate (Corning 3548). Alternatively, ISCs and Paneth cells were mixed after sorting in a 1:1 ratio, centrifuged, and then seeded onto Matrigel™. The Matrigel™ and cells were allowed to solidify before adding 300 μl of crypt culture medium. The crypt media was changed every second or third day. Organoid bodies were quantified on days 3, 7 and 10 of culture, unless otherwise specified. With respect to the study results presented in FIGS. 14-16, organoid bodies were quantified on day 3-4. In secondary experiments, individual primary organoids were mechanically dissociated and re-plated, or organoids were dissociated for 10 minutes in TrypLE Express at 32° C., re-suspended with SMEM (Life Technologies), centrifuged and re-suspended in cold SMEM with viability dye 7-AAD. Live cells were sorted and seeded onto Matrigel™ as previously described. With respect to the study results presented in FIGS. 14-16, young mice were 2-4 months old. Old mice range from 18-25 months of age. The mice were on a standard chow diet. Mice received a single daily injection with the indicated amount of GW501516 or vehicle in the afternoon. Intestines were harvested the following morning.

Entries after “also recorded” stand apart in the source; their conditions may differ.

Regarding `Cc1cc(SCc2sc(-c3ccc(C(F)(F)F)cc3)nc2C)ccc1OCC(=O)O` [GW501516, 2-[2-methyl-4-[[4-methyl-2-[4-(trifluoromethyl)phenyl]-1,3-thiazol-5-yl]methylsulfanyl]phenoxy]acetic acid], in experiment [1] (4 mg/kg), the “number of Lgr5-GFP^low progenitors” value is “not in progenitor cells; also recorded: no effect” and the “number/frequency of Lgr5-GFP^hi ISCs” value is recorded as “augmented; also recorded: selective increase; also recorded: doubled the number”. For the same molecule, in experiment [1] (listed as GW501515), the “number/frequency of Lgr5-GFP^hi ISCs” value is given as “sufficient to enhance”. For the same molecule, the “organoid-forming capacity of intestinal crypts” value in the experiment with small intestinal crypts is reported as “more organoids; also recorded: boosted the organoid-forming capacity”. In experiment [2], the “proliferation of CBC cells and transit-amplifying cells” value was “augmented; also recorded: enhanced the proliferation”. In the experiment on β-catenin target genes, the “transcription of β-catenin target genes (Bmp4, Jag1, Jag2, Edn3)” value is on record as “induction”. For the same molecule, the “organoid formation of co-cultured ISCs and Paneth cells from aged animals” value in the experiment on aged crypts (GW501516 vs old vehicle, day 3) is “significantly boosts organoid formation”. In the experiment with aged crypts (aged mice, GW501516 treatment), the “frequency of organoid formation in aged crypts” value was “increases the frequency of organoid formation” and the “frequency of stem cells” value is recorded as “increases the frequency of stem cells”.
